This passage reports cytotoxicity results from ChEMBL document CHEMBL3507680, “University of Dundee, Gates Library screen for HepG2 cell viability”.

This data set can be described thus: Human HepG2 cell viability assay in 384 well format. Type of data set: toxicity, cell-based. The arrangement: dose 125 nL, time 70.5 hour; cytotoxicity at 70.5 h: concentration not given beside the values. Particulars: HepG2 cells, read-out: Inhibition.

Turning to `COCCC(=O)N1C[C@H]2CN(Cc3cccc(C)c3)C(=O)[C@H]2C1`, the cytotoxicity at 70.5 h is -10.7%.

Turning to `O=C(N1CCCC1)N1CCC2(CC1)C(=O)N(CC1CC1)c1ccccc12`, the cytotoxicity at 70.5 h was -20.3%.

Consider `O=C1C[C@H]2[C@@H](CCN2C(=O)c2cscn2)N1Cc1cccnc1`, for which the cytotoxicity at 70.5 h is -20.8%. Consider `Cc1cccc(CN2C[C@@H]3CN(C(=O)C4CC=CC4)C[C@@H]3C2=O)n1`, for which the cytotoxicity at 70.5 h was -14.7%. For `O=C1C[C@H]2[C@@H](CCN2C(=O)Cc2cccs2)N1CC1CC1` the value was -13.5%. For `CC(=O)N1[C@H](Cn2cncn2)C[C@@H]2CN(C(=O)c3ccoc3)CC[C@@H]21` the value was -6.21%; for `CCN1C(=O)CCCC12CCCN(C(=O)c1ccoc1C)C2` (stereo not drawn), -10.9%. For the compound `O=C(C1CCOC1)N1CCC2(CCCNC2)CC1` (stereo not drawn), the cytotoxicity at 70.5 h is -8.86%. For the compound `O=C(Cc1cccs1)N1CC[C@H]2[C@H]1CCN2Cc1cccnc1`, the cytotoxicity at 70.5 h is -6.88%. For `COCC(=O)N1CCc2c(CNS(C)(=O)=O)n[nH]c2C1` the value was -5.36%. For `CCCS(=O)(=O)N1CCC2(CC(=O)N(c3cnn(C)c3)C2)C1` (stereo not drawn) the value was -7.78%; for `O=C1NC(c2ccccc2)=N[C@@]12CC[C@@H]1CN(Cc3ccncc3)C[C@@H]12`, -13.9%. Regarding `c1coc(CN2CCc3ncnc(C4CCOC4)c3CC2)c1` (stereo not drawn), the cytotoxicity at 70.5 h was -9.16%. In the case of `CCOCC(=O)N1CCC[C@]2(C[C@@H](OCc3ccncc3)CO2)C1`, the cytotoxicity at 70.5 h is -7.17%. For `COc1ncccc1CN1C[C@H](C(=O)N2CCCO2)[C@@H]2CCO[C@@H]2C1` the value was -6.23%; for `CCS(=O)(=O)N1CCC2(CC(=O)N(c3ccc4c(c3)OCO4)C2)C1` (stereo not drawn), 7.63%.

`Cn1cccc1C(=O)NCc1cnc2n1CCN(c1ccccn1)C2`: the cytotoxicity at 70.5 h was -3.68%. With `Cc1noc(C)c1CN1CCCC2(C1)CN(c1nncs1)CCO2` (stereo not drawn), the cytotoxicity at 70.5 h was -7.2%. Under `CC(=O)N1CC(=O)N(c2cnn(C)c2)CC12CCN(Cc1nccs1)C2` (stereo not drawn) stands -7.04%. For the compound `N#Cc1cccc(CN2CCn3cc(CNC(=O)C4CCC4)nc3C2)c1`, the cytotoxicity at 70.5 h was -6.27%. Under `Cn1cccc1C(=O)N[C@@H]1CN(S(C)(=O)=O)[C@@H]2COC[C@@H]21` stands -8.37%; under `CN(C)C(=O)N1CCc2c(nnn2C)C1COCC1CC1` (stereo not drawn), -2.28%; under `COCc1ncn2c1CN(S(=O)(=O)c1cccs1)CCC2`, 10.6%. On to `CCOCc1ncn2c1CN(S(=O)(=O)c1cccs1)CCC2`, for which the cytotoxicity at 70.5 h was found to be 12.5%. For `O=C(CC1CC1)N[C@@H]1CN(Cc2ccoc2)C[C@@H]2CCCO[C@@H]21` the value was 14%; for `CS(=O)(=O)NC[C@H]1OC[C@@H]2CCN(C(=O)c3cccnc3)C[C@@H]21`, -0.643%. For `CCOCc1ncn2c1CN(S(=O)(=O)c1cccs1)CC2` the value was -0.803%. Under `O=C(CC1CC1)N[C@@H]1CN(Cc2nccs2)C[C@@H]2CCCO[C@@H]21` stands -2.11%; under `O=C(NCc1ccco1)[C@@]12CCO[C@@H]1CCN(Cc1nccs1)C2`, 1.38%.

As for `COc1ccc(CN2C[C@@H]3CCCO[C@@H]3[C@H](NC(=O)CC3CC3)C2)cc1`, the cytotoxicity at 70.5 h came out at 3.18%. Take `CC(=O)N1[C@H](CN(C)C)C[C@@H]2CN(C(=O)c3cnc(C)cn3)CC[C@@H]21`: the cytotoxicity at 70.5 h is -5.19%. Regarding `CC(=O)N1[C@H](CN(C)C)C[C@@H]2CN(C(=O)c3cccn3C)CC[C@@H]21`, the cytotoxicity at 70.5 h is -11.1%.

Regarding `O=C(NC1CC1)C1=CC2(CCN(CCO)CC2)c2ccccc21`, the cytotoxicity at 70.5 h is -11%. Under `CCOC1COC2(CCN(Cc3cccc(C#N)c3)CC2)C1` (stereo not drawn) stands -8.68%; under `c1csc(CN2CCc3ncnc(C4CCOC4)c3CC2)c1` (stereo not drawn), -8.76%. For `O=C(O)[C@]12CCCN(Cc3ccco3)C[C@H]1CN(c1ncccn1)C2` the value was -12.1%; for `CC(C)NC(=O)[C@H]1C[C@@H]2[C@@H](C1)OCCN2Cc1ccsc1`, -6.32%. For `CC(C)Oc1ncnc2c1CCN(Cc1ccco1)CC2` the value was -2.84%. In the case of `Fc1ccc(CN2CCc3ncnc(C4CCOC4)c3CC2)cc1` (stereo not drawn), the cytotoxicity at 70.5 h was -5.46%.

For `O=C([C@H]1CN(Cc2ccccc2F)C[C@H]2OCC[C@@H]12)N1CCCO1`, the cytotoxicity at 70.5 h is 1.95%. Under `CN(C)C(=O)CO[C@H]1CN(Cc2cccc(C#N)c2)[C@@H]2COC[C@H]12` stands 7.63%; under `Cc1noc(C)c1CN1CCn2cc(CNC(=O)C3CCC3)nc2C1`, -12.7%. On to `Cn1nnc2c1CCN(C(=O)C1CCC1)C2COCCN1CCCC1` (stereo not drawn), for which the cytotoxicity at 70.5 h is -2.83%. `O=C(NCc1cn2c(n1)CN(Cc1cccc(F)c1)CC2)C1CCC1`: the cytotoxicity at 70.5 h was -3.08%. Under `O=C(N[C@@H]1CN(C2CCCC2)C[C@@H]2CCCO[C@@H]21)c1cnccn1` stands -12.5%; under `Cn1cccc1C(=O)N[C@@H]1CN(Cc2ccsc2)[C@@H]2COC[C@@H]21`, -10.2%; under `CN1CCc2ncc(CNC(=O)c3cccn3C)n2CC1`, -7.23%. For `O=C(CC1CC1)N[C@@H]1CN(c2ncccn2)C[C@@H]2CCCO[C@@H]21` the value was -7.21%; for `Cn1cccc1C(=O)NCc1cnc2n1CCN(CC1CC1)C2`, 3.59%.

`O=C([C@H]1C[C@H]2OCC[C@H]2N(C(=O)c2ccncc2)C1)N1CCCC1`: the cytotoxicity at 70.5 h was -5.12%. For `Cc1cc(CN2C[C@@H]3CCCO[C@@H]3[C@H](NS(C)(=O)=O)C2)no1` the value was -1.78%; for `CC(C)NC(=O)[C@H]1C[C@@H]2[C@@H](C1)OCCN2Cc1ccccn1`, -5.2%; for `Cc1noc(C)c1CN1CCCC2(C1)CN(Cc1nccn1C)CCO2` (stereo not drawn), -8.03%.

For the compound `c1csc(CN2CCCC3(COCCN(Cc4c[nH]nn4)C3)C2)c1` (stereo not drawn), the cytotoxicity at 70.5 h was 1.75%. For `CN(C)CCOCC1CN(C(=O)N2CCCC2)Cc2ccnn2C1` (stereo not drawn) the value was -5.66%. Under `CN(C)CCNC(=O)c1nc2c(o1)CN(C(=O)c1cccnc1)C2` stands 10.9%; under `Cn1ccnc1CN1CCN2C[C@H](Oc3cccc(F)c3)C[C@H]2C1`, 11.9%; under `CN(C)CCN1CCOCC2(CCCN(C(=O)c3ccccn3)C2)C1` (stereo not drawn), 0.371%. For `CN(C)CCN1CCOCC2(CCCN(C(=O)c3ccoc3)C2)C1` (stereo not drawn) the value was 1.59%; for `O=C(CC1CC1)N[C@@H]1CN(Cc2ccccn2)C[C@@H]2CCCO[C@@H]21`, -0.597%.

As to `c1cnc(N2CCN(C3CCC[C@@H]4CN(CC5CC5)C[C@H]34)CC2)nc1` (stereo partly drawn), the cytotoxicity at 70.5 h was -1.3%.

As for `Cc1cccc(CN2CCN3C[C@H](Oc4cccnc4)C[C@H]3C2)n1`, the cytotoxicity at 70.5 h is -1.7%. Turning to `Cn1ccnc1CN1CCN2C[C@H](OCc3cccnc3)C[C@H]2C1`, the cytotoxicity at 70.5 h is -2.68%.
